“And” between values parts separate entries of the source, which are not always exact repeats. Equal entries are not always repeated. “Also recorded” adds a separate entry of the source. Where two headings read alike, the source gives them in different places.
How the values were obtained:
[1] = test system: HEK 293FT cells; test: Cell survival, Alamar Blue (resazurin) assay; type: cell-based, human; conditions: for Activity on cell viability / survival (in words) / IC50: 24-h treatment; for IC50: 2% DMSO, read-out: IC50 for inhibition of cell survival
Description: For cellular experiments, HEK 293FT cells (a fast-growing SV40 large T antigen-transformed strain of HEK 293 cells designed for enhanced transgene expression in transient transfections) were grown in growth medium consisting of Dulbecco’s modified Eagle’s medium (DMEM; Sigma-Aldrich), supplemented with 10% fetal bovine serum (FBS; Gibco) in a humified cell culture incubator at 37 °C with 5% CO2.
(§1) HEK 293FT cells were evaluated for survival following compound treatments by the Alamar Blue (resazurin) assay. Cells were plated onto 96-well plates at 4.8 × 10^4 cells/well in 0.5% FBS-containing DMEM at 37 °C and 5% CO2. After 24 h, compounds were added. After 24-h treatment, resazurin was added to a final concentration of 0.12 mM. Following 4-h incubation, conversion to the resorufin product was measured (with excitation at 542 nm and emission at 590 nm) on a fluorescence plate reader.

[2] = test system: PCNA ubiquitination (RFC, Uba1, Rad6, Rad18, PCNA, ubiquitin); test: Reconstituted PCNA ubiquitination cascade, Western blot quantitation; type: biochemical, human; conditions: for IC50: 15 min preincubation, 2 h with ATP, 2% DMSO, nonlinear regression, read-out: IC50 for inhibition of PCNA ubiquitination; for Activity in the PCNA ubiquitination assay (in words): up to 500 μM
Description: The PCNA loading and ubiquitination cascade was reconstituted in 96-well white round-bottom polypropylene plates (Greiner) in a buffer consisting of 40 mM Tris-HCl, pH 7.5, 8 mM MgCl2, and 10% glycerol with 2.5 nM nicked circular pUC19, 50 nM RFC, 50 nM Uba1, 250 nM Rad6–Rad18 dimer, 50 nM FLAG-PCNA, and 250 nM biotin-ubiquitin (final concentrations). Compounds were added to the samples, with preincubation for 15 min at 25 °C before addition of ATP to a final concentration of 2 mM (to initiate the reaction cascade), followed by incubation for 2 h at 25 °C. The reactions were then terminated by addition of EDTA to 20 mM for Alpha assays or Laemmli sample buffer for Western blot analyses. For Alpha assays, reaction mixtures were diluted in buffer containing streptavidin-conjugated donor beads and anti-FLAG antibody-conjugated acceptor beads in opaque white microplates under low-light conditions, as recommended by the Alpha bead manufacturer, PerkinElmer. The plates were read on a Tecan Spark microplate reader at 23 °C. For Western blot analyses, FLAG-PCNA was detected with anti-FLAG antibody, and quantitations from the Western blot images was performed with NIH ImageJ software[74] and then analyzed with GraphPad Prism software.

[3] = molecular target: T1, Uba1 (Homo sapiens, UniProt P22314); test: Uba1~ubiquitin thioester formation (Uba1, GST-ubiquitin, ATP; silver-stained gels); type: biochemical; conditions: for Activity in the Uba1~ubiquitin thioester formation assay (in words): up to 500 μM
T1 construct: His; host or cells: E. coli BL21(DE3)
T1 sequence (P22314 1-1058): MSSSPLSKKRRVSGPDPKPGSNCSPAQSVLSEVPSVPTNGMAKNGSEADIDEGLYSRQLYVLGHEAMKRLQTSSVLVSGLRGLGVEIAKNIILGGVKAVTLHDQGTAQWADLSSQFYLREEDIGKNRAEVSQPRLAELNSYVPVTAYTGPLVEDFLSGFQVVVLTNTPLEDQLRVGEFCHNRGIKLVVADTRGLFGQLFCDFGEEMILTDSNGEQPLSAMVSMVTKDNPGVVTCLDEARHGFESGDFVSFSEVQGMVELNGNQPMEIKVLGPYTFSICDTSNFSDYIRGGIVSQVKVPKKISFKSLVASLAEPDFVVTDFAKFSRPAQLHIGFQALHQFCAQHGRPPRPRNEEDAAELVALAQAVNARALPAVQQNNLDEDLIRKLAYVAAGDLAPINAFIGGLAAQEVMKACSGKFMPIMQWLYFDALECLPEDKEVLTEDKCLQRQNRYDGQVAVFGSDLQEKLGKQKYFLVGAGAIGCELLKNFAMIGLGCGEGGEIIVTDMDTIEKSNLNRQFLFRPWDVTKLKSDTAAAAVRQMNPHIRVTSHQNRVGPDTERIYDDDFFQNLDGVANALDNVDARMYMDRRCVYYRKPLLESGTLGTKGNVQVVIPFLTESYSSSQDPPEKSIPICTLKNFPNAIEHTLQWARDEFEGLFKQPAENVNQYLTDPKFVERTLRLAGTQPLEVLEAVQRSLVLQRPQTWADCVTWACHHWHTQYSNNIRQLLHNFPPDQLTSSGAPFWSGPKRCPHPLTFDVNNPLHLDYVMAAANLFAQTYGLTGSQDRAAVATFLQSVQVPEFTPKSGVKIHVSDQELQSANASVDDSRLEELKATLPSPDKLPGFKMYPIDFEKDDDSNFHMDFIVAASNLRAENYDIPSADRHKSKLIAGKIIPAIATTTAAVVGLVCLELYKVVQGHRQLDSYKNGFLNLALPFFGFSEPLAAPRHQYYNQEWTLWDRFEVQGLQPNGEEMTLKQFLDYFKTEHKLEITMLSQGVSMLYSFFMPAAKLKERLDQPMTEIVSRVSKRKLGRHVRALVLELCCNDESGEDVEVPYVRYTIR

[4] = test system: ubiquitin-overexpressing HEK 293 cells; test: Cell survival in ubiquitin-overexpressing cells vs empty vector-transfected control cells; type: cell-based, human; conditions: 24-h treatment at IC50 of each compound (Myr 3 mM, DM 650 μM; puromycin 1 and 2 μM)
Description: as §1
(§2) HEK 293FT cells (1.5 × 10^6) were plated onto 6-cm plates in 5 ml of DMEM with 10% FBS and allowed to grow for 24 h at 37 °C and 5% CO2. For transfections, 6 μg of plasmid DNA (empty vector containing FLAG-tag sequence only, FLAG-Uba1, or FLAG-ubiquitin) and 10 μl of Lipofectamine 2000 were used for each plate. The DNA and the reagent were diluted separately in 500 μl of Opti-MEM (Gibco), and each was mixed by vortexing. After 5-min incubation, the two tubes were combined and incubated for another 20 min. Prior to adding the transfection solution to the cells, the medium was replaced with 4 ml of Opti-MEM. The transfection solution was then added dropwise. After 3-h incubation, the medium was changed to 0.5% FBS-containing DMEM, and the cells were plated for cell survival experiments, as above.

[5] = test system: Uba1-overexpressing HEK 293 cells; test: Cell survival in Uba1-overexpressing cells vs empty vector-transfected control cells; type: cell-based, human; conditions: 24-h treatment at IC50 of each compound (Myr 3 mM, DM 650 μM; puromycin 1 and 2 μM)
Description: as §1, §2

[6] = molecular target: T1, Uba1; test: Reversibility: Uba1 preincubation, washout by centrifugal filtration, then PCNA ubiquitination; type: biochemical; conditions: 30 μM compound preincubated with Uba1 for 2 h, then washed out
Description: Samples were then transferred to YM-30 Microcon centrifugal concentrators (Merck Millipore), diluted in buffer (40 mM Tris-HCl, pH 7.5, 8 mM MgCl2, and 10% glycerol), then serially centrifuged with additions of buffer to the remaining retentate between each spin, for final dilutions of compounds to <0.05% of original concentrations. The resulting samples were then tested in PCNA ubiquitination reactions.

[7] = Uba1 preincubated with compound 15 min, 2 h reaction, 2% DMSO, read-out: IC50 for inhibition of Uba1~ubiquitin thioester formation

Compound | IC50 [2] [µM] | IC50 ([3]; Fig. 6, unit printed as M, read-out: IC50 (Uba1~Ub)) [µM] | IC50 [3, 7] | Activity in the Uba1~ubiquitin thioester formation assay (in words) [3] | Activity in the cell viability experiments at 500 μM ([1]; 24 h) | Activity on cell viability / survival (in words) [1] | IC50 ([1]; Homo sapiens, HEK293FT, 24 h) [µM] | Activity in the PCNA ubiquitination assay (in words) [2] | Effect of ubiquitin overexpression on cell survival [4] | Effect of Uba1 overexpression on cell survival [5] | IC50 [1] [µM] | Reversibility of inhibition of Uba1 and PCNA ubiquitination after washout [6] | Uba1~ubiquitin thioester formation, ubiquitin alone preincubated with compound before Uba1 and ATP ([3]; EGCG 10 μM, Myr 50 μM) | IC50 ([3]; Fig. 6, read-out: IC50 (Uba1~Ub)) [µM]
O=C1c2c(O)cc(O)cc2O[C@H](c2cc(O)c(O)c(O)c2)[C@H]1O [DM, (+)-Dihydromyricetin] | 66.4 | 14.3 | 14.3 µM | – | only very weak activity | very weak activity | > 500 | active | Protects | Does not protect | – | – | – | –
CCCOC(=O)c1cc(O)c(O)c(O)c1 [PG, n-Propyl gallate] | > 500 | – | > 500 µM | inactive | – | little effects | 176 | inactive | not mitigated; also recorded: Does not protect | not mitigated; also recorded: Does not protect | 176 | – | – | –
O=C(O)c1cc(O)c(O)c(O)c1 [GA, Gallic acid] | > 500 | – | > 500 µM | inactive | – | little effects | 241 | inactive | not mitigated; also recorded: Does not protect | not mitigated; also recorded: Does not protect | 241 | – | – | –
O=c1c(O)c(-c2cc(O)c(O)c(O)c2)oc2cc(O)cc(O)c12 [Myr, Myricetin] | 1.21 | – | 0.721 µM | active | only very weak activity | very weak activity | > 500 | active | Protects | Protects | – | reversible | resulted in inhibition | 0.721
COc1ccc(C[C@H](N)C(=O)N[C@H]2[C@@H](O)[C@H](n3cnc4c(N(C)C)ncnc43)O[C@@H]2CO)cc1 [puromycin, reference compound] | – | – | – | – | – | – | – | – | no differences | no differences | – | – | – | –
CCCCCCCCOC(=O)c1cc(O)c(O)c(O)c1 [OG, n-Octyl gallate] | 10.3 | – | 80.6 µM | active | – | active | 38.7 | active | Protects | Protects | – | – | – | –
CCCCCCCCCCCCOC(=O)c1cc(O)c(O)c(O)c1 [DG, n-Dodecyl gallate] | 1.63 | – | 35 µM | active | – | active | 33.5 | active | Protects | Does not protect | 33.5 | – | – | –
Oc1cc(O)c2c(c1)O[C@H](c1cc(O)c(O)c(O)c1)[C@H](O)C2 [EGC, (–)-Epigallocatechin] | 43.3 | – | 7.6 µM and 7.58 µM | weak activity | – | measurable cytostatic/cytotoxic activity | 176 | weak activity | not affected; also recorded: Does not protect | not affected; also recorded: Does not protect | 176 | – | – | –

Continued, in another order:

IC50 [2] [µM] | IC50 ([3]; Fig. 6, unit printed as M, read-out: IC50 (Uba1~Ub)) [µM] | IC50 [3, 7] | Activity in the Uba1~ubiquitin thioester formation assay (in words) [3] | Compound | Activity in the cell viability experiments at 500 μM ([1]; 24 h) | Activity on cell viability / survival (in words) [1] | IC50 ([1]; Homo sapiens, HEK293FT, 24 h) [µM] | Activity in the PCNA ubiquitination assay (in words) [2] | Effect of ubiquitin overexpression on cell survival [4] | Effect of Uba1 overexpression on cell survival [5] | IC50 [1] [µM] | Reversibility of inhibition of Uba1 and PCNA ubiquitination after washout [6] | Uba1~ubiquitin thioester formation, ubiquitin alone preincubated with compound before Uba1 and ATP ([3]; EGCG 10 μM, Myr 50 μM) | IC50 ([3]; Fig. 6, read-out: IC50 (Uba1~Ub)) [µM]
> 500 | – | > 500 µM | inactive | Oc1cc(O)c2c(c1)O[C@H](c1ccc(O)c(O)c1)[C@@H](O)C2 [Cat, (+)-Catechin] | only very weak activity | – | > 500 | inactive | – | – | – | – | – | –
> 500 | – | > 500 µM | inactive | Oc1cc(O)c2c(c1)O[C@H](c1ccc(O)c(O)c1)[C@H](O)C2 [EC, (–)-Epicatechin] | only very weak activity | – | > 500 | inactive | – | – | – | – | – | –
0.537 | – | 4.2 µM and 4.22 µM | active | O=C(O[C@@H]1Cc2c(O)cc(O)cc2O[C@@H]1c1ccc(O)c(O)c1)c1cc(O)c(O)c(O)c1 [ECG, (–)-Epicatechin-3-gallate] | – | active | 262 | active | mitigated; also recorded: Protects | mitigated; also recorded: Protects | 262 | – | – | –

From publication PMC6728334 (Scientific Reports, 2019)
